Reference: patent publication US10760052B2, “Method of inhibiting tau phosphorylation” (priority 2012, dated 2020)

Experiments:
TLR4-FLNA complex = target: T1, TLR4-FLNA complex (Mus musculus, UniProt Q8BTM8); assay: ICV Aβ42 infusion mouse model: FLNA association with TLR4; assay type: in vivo; conditions: 10 mg/kg twice daily; prefrontal cortex and hippocampus
T1 construct: from tissue; host or cells: synaptosomes from prefrontal cortex and hippocampus of treated E129 mice
Experimental: (§1) . The anti-FLNA immunocomplexes were obtained by centrifugation, washed and dissociated using antigen elution buffer. […] The levels of FLNA-associated α7nAChRs and TLR4s were assessed by Western blotting and the blot stripped and re-probed for FLNA for immunoprecipitation/loading control.

NMDAR [1] = assay type: cell-based, human; conditions: AD and Aβ42-treated control brain slices
NMDAR [2] = assay: Levels of signaling molecules associated with NMDAR (NR1) in slice cultures; assay type: cell-based, rat; conditions: 0.1 μM Aβ42
Experimental: NMDAR activation and signaling was initiated by incubation of 6 slices with either 0.3 mM Mg^2+ containing KR (LMKR; basal) or LMKR containing 10 μM NMDA and 1 μM glycine at 37° C. for 30 minutes.
Ligand stimulation was terminated by the addition of 1 ml of ice-cold Ca^2+-free K-R containing mixture of protein phosphatase inhibitors, 0.5 mM EGTA and 0.1 mM EDTA. Brain slices were harvested by a brief centrifugation and were homogenized in 0.25 ml of ice-cold immunoprecipitation buffer. The homogenates were centrifuged at 1000×g for 5 minutes (4° C.) and the supernatant (post-mitochondrial fraction) was sonicated for 10 seconds on ice.
(§2) The resultant lysates were cleared by centrifugation at 50,000×g for 5 minutes and diluted with 0.75 ml of immunoprecipitation buffer. Protein concentrations were measured by Bradford method (Bio-Rad).
To determine the association of NMDARs with PSD-95, as well as NMDAR signaling, the levels of NMDAR subunits, PSD-95 and NMDAR-associated signaling molecules were measured in anti-NR1 immunoprecipitates. In these studies, brain slice lysates (100 μg) were immunoprecipitated overnight at 4° C. with 2 μg of immobilized anti-NR1 onto covalently conjugated protein A-agarose beads (Pierce-ENDOGEN). […]

[3] = test system: voltage-gated Ca2+ channel mediated Ca2+ influx; assay type: cell-based, rat; conditions: slice cultures
α7nAChR-FLNA complex [4] = target: T2, α7nAChR-FLNA complex (Mus musculus, UniProt Q8BTM8); assay: ICV Aβ42 infusion mouse model: FLNA association with α7nAChR; assay type: in vivo; conditions: 10 mg/kg twice daily; prefrontal cortex and hippocampus
T2 construct: from tissue; host or cells: synaptosomes from prefrontal cortex and hippocampus of treated E129 mice
Experimental: as §1

NMDAR [5] = assay: Postmortem human frontal cortex: NMDAR signaling and association with PSD-95; assay type: cell-based; conditions: AD brain slices, 1 nM, one hour incubation
Experimental: NMDAR activation and signaling were initiated by incubation of approximately 10 mg of in vitro treated brain slices with either LMKR (basal) or LMKR containing 10 μM NMDA and 1 μM glycine at 37° C. for 30 minutes. […] Ligand stimulation was terminated by the addition of 1 ml of ice-cold Ca^2+-free K-R containing 0.5 mM EGTA and 0.1 mM EDTA.
Brain slices were harvested by a brief centrifugation and were homogenized in 0.25 ml of ice-cold immunoprecipitation buffer. The homogenates were centrifuged at 1000×g for 5 minutes (4° C.) and the supernatant (post-mitochondrial fraction) is sonicated for 10 seconds on ice. […] The resultant lysates are then cleared by centrifugation at 50,000×g for 5 minutes and diluted with 0.75 ml of immunoprecipitation buffer. Protein concentrations are measured by Bradford method (Bio-Rad).
To determine the NMDAR signaling and the NMDAR complexes association with PSD-95 [also known as Disks large homolog 4 (DLH4)], the levels of NMDAR subunits, PSD-95 and NMDAR-associated signaling molecules were measured in anti-NR1 immunoprecipitates.
In these studies, brain slice lysates (200 μg) were immunoprecipitated overnight (about 18 hours) at 4° C. with 2 μg of immobilized anti-NR1 onto covalently conjugated protein A-agarose beads (Pierce-ENDOGEN). […]

[6] = test system: tau (pSer202, pThr231, pThr181); assay: ICV Aβ42 infusion mouse model: tau phosphorylation; assay type: in vivo; conditions: 10 mg/kg twice daily
Experimental: The levels of phosphorylated tau (pSer202tau, pThr231tau and pThr181tau) as well as total tau precipitated (loading controls) were assessed by Western blotting using specific antibodies directed against each of the phosphoepitopes and the anti-tau, respectively.

[7] = test system: α7nAChR (Aβ42-α7nAChR interaction); assay: Aβ42 affinity for α7nAChR in SK-N-MC cells; assay type: binding, human
[8] = test system: α7nAChR (Aβ42-α7nAChR interaction); assay: Aβ42 affinity for α7nAChR in biotinylated synaptic membranes from postmortem frontal cortices; assay type: binding, human
Source text: FIG. 27 in two panels illustrates that Compound C0105 reduces affinity of the Aβ42-α7nAChR interaction. […] Data are means±SEM. n=11 for postmortem control tissue; n=6 for SK-N-MC cells.

NMDAR [9] = assay: ICV Aβ42 infusion mouse model: NMDAR signaling molecules; assay type: in vivo; conditions: 10 mg/kg twice daily
Experimental: NMDAR signaling and their interaction with synaptic anchoring protein, PSD-95 were compared in synaptosomes from treated mice. NMDAR activation and signaling was initiated by incubation of 6 slices with either 0.3 mM Mg^2+ containing KR (LMKR; basal) or LMKR containing 10 μM NMDA and 1 μM glycine at 37° C. for 30 minutes.
Ligand stimulation was terminated by the addition of 1 ml of ice-cold Ca^2+-free K-R containing mixture of protein phosphatase inhibitors, 0.5 mM EGTA and 0.1 mM EDTA. After harvesting, tissues were briefly centrifuged and homogenized in 0.25 ml of ice-cold immunoprecipitation buffer. The homogenates were centrifuged at 1000×g for 5 minutes (4° C.) and the supernatant (post-mitochondrial fraction) was sonicated for 10 seconds on ice.
as §2
To determine the NMDARs association with PSD-95 as well as NMDAR signaling, the levels of NMDAR subunits, PSD-95 and NMDAR-associated signaling molecules were measured in anti-NR1 immunoprecipitates. In these studies, brain tissue lysates (100 μg) were immunoprecipitated overnight (about 18 hours) at 4° C. with 2 μg of immobilized anti-NR1 onto covalently conjugated protein A-agarose beads (Pierce-ENDOGEN). […]

Aβ42-α7nAChR complexes = assay: Postmortem human frontal cortex: Aβ42-α7nAChR complexes; assay type: cell-based; conditions: AD and Aβ42-treated control tissue; 0.1 and 1 nM
Experimental: Postmortem frontal cortex tissues were gradually thawed (from −80° C. to −20° C.) and were sliced using a chilled McIlwain tissue chopper (200 μm×200 μm×3 mm). […] Following two additional washes with 1 ml of ice-cold K-R, brain slices were suspended in 1 ml of K-R.
Incubation continued for 1 hour in the dark to minimize light destruction of the test agents. […] Reaction was terminated by the addition of 1.5 ml of ice-cold Ca^2+-free K-R. Tissue slices were harvested by a brief centrifugation and used as the tissue sources for various assays.

α7nAChR-FLNA complex [10] = target: T3, α7nAChR-FLNA complex (Rattus norvegicus, UniProt A0A8I5ZV49); assay: Aβ42-induced α7nAChR-FLNA association in rat frontal cortical synaptosomes (co-immunoprecipitation/Western blot); assay type: cell-based
T3 construct: from tissue; host or cells: rat frontal cortex synaptosomes
Source text: The α7nAChR-FLNA complexes in the solubilized synaptosomes were immunoprecipitated with immobilized anti-FLNA and the α7nAChR and FLNA levels in the anti-FLNA immunoprecipitates determined by Western blotting (FIG. 2A) and quantified by densitometry (FIG. 2B). n=3. […] The letter designation “M” that accompanies many of the “C-series” compounds is omitted from FIG. 2, the remaining figures and most discussions of the figures and compounds hereinafter for ease in expression. Structural formulas of the compounds used in this and the other figures are provided hereinafter. […]

[11] = test system: voltage-gated Ca2+ channel mediated Ca2+ influx; assay type: in vivo, mouse; conditions: 10 mg/kg twice daily
insulin receptor (IR) = assay: IR activation and signaling (pY1150/1151 IRβ, IRS-1) in slice cultures; assay type: cell-based, rat; conditions: insulin stimulation
Experimental: IR activation and signaling was initiated by incubation of 6 slices that were further chopped horizontally into 100 μm (100 μm×200 μm×3 mm) with either KR (basal) or KR containing 1 nM insulin at 37° C. for 30 minutes. […] Ligand stimulation was terminated by the addition of 1 ml of ice-cold Ca^2+-free K-R containing mixture of protein phosphatase inhibitors, 0.5 mM EGTA and 0.1 mM EDTA. Brain slices were harvested by a brief centrifugation and were homogenized in 0.25 ml of ice-cold immunoprecipitation buffer. The homogenates were centrifuged at 1000×g for 5 minutes (4° C.) and the supernatant (post-mitochondrial fraction) was sonicated for 10 seconds on ice. […] The resultant lysates were then cleared by centrifugation at 50,000×g for 5 minutes and diluted with 0.75 ml of immunoprecipitation buffer. Protein concentrations were measured by Bradford method (Bio-Rad).
In these experiments, brain slice lysates (100 μg) were immunoprecipitated overnight (about 18 hours) at 4° C. with 2 μg of immobilized anti-IRβ onto covalently conjugated protein A-agarose beads (Pierce-ENDOGEN). […]

T3 sequence (A0A8I5ZV49 entry or part of it, one chain of several): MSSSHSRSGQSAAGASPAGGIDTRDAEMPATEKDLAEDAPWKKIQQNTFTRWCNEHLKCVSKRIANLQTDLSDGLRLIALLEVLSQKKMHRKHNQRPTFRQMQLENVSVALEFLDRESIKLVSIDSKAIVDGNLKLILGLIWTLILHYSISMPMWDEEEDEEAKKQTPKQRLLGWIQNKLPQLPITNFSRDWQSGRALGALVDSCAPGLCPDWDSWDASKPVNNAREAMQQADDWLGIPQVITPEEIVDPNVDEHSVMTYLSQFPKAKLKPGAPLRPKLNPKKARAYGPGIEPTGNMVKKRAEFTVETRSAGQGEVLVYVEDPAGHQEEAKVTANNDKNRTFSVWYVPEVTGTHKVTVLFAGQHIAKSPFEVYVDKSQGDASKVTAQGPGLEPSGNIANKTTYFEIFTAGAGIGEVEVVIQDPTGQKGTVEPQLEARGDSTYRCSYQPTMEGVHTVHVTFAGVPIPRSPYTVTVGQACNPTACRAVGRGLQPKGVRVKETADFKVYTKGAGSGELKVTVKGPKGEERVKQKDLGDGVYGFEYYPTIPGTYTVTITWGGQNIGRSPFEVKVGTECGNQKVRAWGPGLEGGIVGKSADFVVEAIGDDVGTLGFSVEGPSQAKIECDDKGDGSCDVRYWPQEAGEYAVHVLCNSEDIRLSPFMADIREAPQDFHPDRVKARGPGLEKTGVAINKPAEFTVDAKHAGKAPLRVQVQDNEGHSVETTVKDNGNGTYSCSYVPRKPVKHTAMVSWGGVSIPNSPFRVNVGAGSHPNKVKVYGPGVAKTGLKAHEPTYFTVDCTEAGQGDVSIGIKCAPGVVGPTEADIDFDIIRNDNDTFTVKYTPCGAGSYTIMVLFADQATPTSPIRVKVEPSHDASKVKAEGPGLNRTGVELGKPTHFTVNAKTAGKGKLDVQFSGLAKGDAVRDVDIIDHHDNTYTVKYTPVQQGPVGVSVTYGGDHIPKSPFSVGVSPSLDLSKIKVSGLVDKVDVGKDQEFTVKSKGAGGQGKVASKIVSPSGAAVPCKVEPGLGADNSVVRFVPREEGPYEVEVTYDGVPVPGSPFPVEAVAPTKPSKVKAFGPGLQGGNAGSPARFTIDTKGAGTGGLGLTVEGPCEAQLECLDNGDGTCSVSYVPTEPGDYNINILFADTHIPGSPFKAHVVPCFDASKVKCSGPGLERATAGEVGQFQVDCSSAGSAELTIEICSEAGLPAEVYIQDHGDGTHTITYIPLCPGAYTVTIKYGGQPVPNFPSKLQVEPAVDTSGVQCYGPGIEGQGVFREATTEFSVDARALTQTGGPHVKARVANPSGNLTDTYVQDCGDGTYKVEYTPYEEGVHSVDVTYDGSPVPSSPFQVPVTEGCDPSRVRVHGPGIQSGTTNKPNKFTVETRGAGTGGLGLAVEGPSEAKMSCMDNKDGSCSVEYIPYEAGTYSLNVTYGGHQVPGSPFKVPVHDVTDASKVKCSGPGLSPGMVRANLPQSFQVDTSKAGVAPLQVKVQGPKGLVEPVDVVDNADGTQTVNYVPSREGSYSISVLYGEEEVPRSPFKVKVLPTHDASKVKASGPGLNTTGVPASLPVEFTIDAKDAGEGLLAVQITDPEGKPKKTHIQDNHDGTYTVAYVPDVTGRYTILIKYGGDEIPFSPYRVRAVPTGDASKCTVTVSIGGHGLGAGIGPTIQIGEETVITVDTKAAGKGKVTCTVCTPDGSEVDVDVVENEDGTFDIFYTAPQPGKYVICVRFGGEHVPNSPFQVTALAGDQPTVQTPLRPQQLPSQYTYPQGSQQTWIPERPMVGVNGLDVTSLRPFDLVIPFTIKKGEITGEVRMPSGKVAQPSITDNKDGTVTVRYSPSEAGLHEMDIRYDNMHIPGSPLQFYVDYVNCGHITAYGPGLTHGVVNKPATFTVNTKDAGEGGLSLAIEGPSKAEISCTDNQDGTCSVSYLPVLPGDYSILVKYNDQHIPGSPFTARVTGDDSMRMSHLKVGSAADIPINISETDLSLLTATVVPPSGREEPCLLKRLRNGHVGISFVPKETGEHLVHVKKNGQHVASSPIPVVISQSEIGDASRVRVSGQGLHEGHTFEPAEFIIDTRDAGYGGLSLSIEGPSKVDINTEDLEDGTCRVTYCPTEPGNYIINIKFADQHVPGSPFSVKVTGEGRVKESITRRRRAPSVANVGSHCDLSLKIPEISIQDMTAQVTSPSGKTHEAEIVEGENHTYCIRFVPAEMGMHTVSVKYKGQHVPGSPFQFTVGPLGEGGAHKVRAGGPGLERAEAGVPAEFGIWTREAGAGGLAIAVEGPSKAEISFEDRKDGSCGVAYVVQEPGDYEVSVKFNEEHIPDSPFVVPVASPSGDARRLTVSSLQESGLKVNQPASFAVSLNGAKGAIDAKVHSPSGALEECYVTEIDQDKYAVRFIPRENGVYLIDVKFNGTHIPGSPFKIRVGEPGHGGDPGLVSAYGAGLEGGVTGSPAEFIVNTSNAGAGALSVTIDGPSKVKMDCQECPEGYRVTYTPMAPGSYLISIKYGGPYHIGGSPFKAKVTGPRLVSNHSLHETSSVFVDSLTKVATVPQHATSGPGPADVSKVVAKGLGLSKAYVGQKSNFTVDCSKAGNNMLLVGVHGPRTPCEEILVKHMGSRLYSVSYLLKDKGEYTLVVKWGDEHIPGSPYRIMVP

CN1CCC2(CC1)NCC(=O)N2Cc1ccccc1 [Compound C0105]
Aβ42-induced increase in FLNA association with TLR4 (TLR4-FLNA complex): reduced Aβ42-induced increases in FLNA associations with both α7nAChR and TLR4
Functioning of NMDAR (calcium influx after receptor stimulation) (NMDAR [1]): preserves functioning
Levels of six signaling molecules associated with NR1 after NMDA and glycine (NMDAR [2]): fully restored function
Aβ42-induced reduction of K+-evoked calcium influx [3]: completely reversed by 1 and 10 nM
Aβ42-induced increase in FLNA association with α7nAChR (α7nAChR-FLNA complex [4]): reduced Aβ42-induced increases in FLNA associations with both α7nAChR and TLR4
NMDAR signaling impairment (six measures) (NMDAR [5]): normalized all six measures
Tau phosphorylation at three sites [6]: suppressed tau phosphorylation at all three phosphorylation sites
Reduction of Aβ42 binding affinity for α7nAChR ([7]; fresh SK-N-MC cells, n=6): 10,000 fold
Kd ([7]; read-out: Aβ42 binding affinity for α7nAChR with Compound C0105, SK-N-MC cells): 1 nM
Reduction of affinity of the Aβ42-α7nAChR interaction ([8]; FIG. 27: postmortem tissue and SK-N-MC cells): 1,000-10,000 fold
Reduction of Aβ42 binding affinity for α7nAChR ([8]; postmortem control tissue, biotinylated synaptic membranes, n=11): 1000 fold
Kd ([8]; read-out: Aβ42 binding affinity for α7nAChR after Compound C0105 incubation, postmortem control tissue): 16 nM
Levels of NMDAR signaling molecules co-immunoprecipitating with NR-1 (NMDAR [9]): normalized
Aβ42-α7nAChR complexes (Aβ42-α7nAChR complexes): reduces Aβ42-α7nAChR complexes
α7nAChR-FLNA association (ratio α7nAChR/FLNA) (α7nAChR-FLNA complex [10]; 1 or 10 nM compound, simultaneously or 10 minutes prior to Aβ42 (0.1 μM)): statistically different from Aβ42 alone
α7nAChR-FLNA association (α7nAChR-FLNA complex [10]; simultaneous administration with Aβ42): markedly reduced this coupling
K+-evoked calcium influx [11]: restored it
Aβ42-induced IR signaling impairments (IRS-1 association, pY1150/1151 IRβ) (insulin receptor (IR)): normalized the signaling impairments
